Source: paper PMC11577759, “The structure of lipopeptides impacts their antiviral activity and mode of action against SARS-CoV-2 in vitro” (Applied and Environmental Microbiology, 2024)
Read-outs that look alike come from different tables or passages of the source. Marks after values point to notes of the source that are not given here.

Legend:
SARS-CoV-2 [1] = experiment: Replication / antiviral assay, viral RNA in supernatant by RT-qPCR; assay type: cell-based; conditions: for Reduction of viral RNA concentration: serum diluted five times, vs infected cells (Fig. 6)
SARS-CoV-2 [2] = conditions: surfactin 35, WLIP 20, fengycin 50, caspofungin 100 µg/mL; 100% = untreated infected cells at 37°C
SARS-CoV-2 [3] = experiment: Binding inhibition: pre-treatment of SARS-CoV-2 and incubation on cells; assay type: cell-based; conditions: virus pre-treated, surfactin 35, WLIP 20, fengycin 50, caspofungin 100 µg/mL
Vero E6 cells = experiment: Cytotoxicity, CyQUANT XTT cell viability assay; assay type: cell-based, Chlorocebus sp.; conditions: 72 h
Procedure: Chlorocebus sp. kidney epithelial cells (Vero E6; ATCC VERO C1008) were cultured in Dulbecco’s Modified Eagle medium (DMEM) High Glucose w/ Stable Glutamine w/ Sodium Pyruvate (VWR, USA) supplemented with 2% (vol/vol) of decomplemented fetal bovine serum (FBS, Biowest, France) and 1% (vol/vol) Penicillin-Streptomycin (VWR, USA). The cells were grown at 37°C in a humidified 5% CO2 atmosphere. Cells were routinely passaged when they reached 100% confluence and were passaged until passage 15.
The cytotoxic activity of the lipopeptides was assessed using a CyQUANT XTT Cell Viability Assay (Thermo Fisher Scientific) according to the manufacturer’s instructions. […] The cells were then incubated for 72 h at 37°C. The kit was then used following the manufacturer’s instructions, and the plates were read at 450 nm and 660 nm using a Multiskan GO Microplate Spectrophotometer (Thermo Fisher Scientific). The percentage of viable cells was calculated as (AT450 − AT660 − AB450) / (AC450 − AC660) × 100%, where AT450, AT660, AB450, AC450, and AC660 represent the absorbance of the tested well at 450 nm, of the tested well at 660 nm, of the blank (only medium) at 450 nm, of the control cells at 450 nm, and of the control cells at 660 nm, respectively. One hundred percent viability corresponds to the viability of uninfected cells. DMSO concentrations ranging from 0.5% (vol/vol) to 0.001% (vol/vol) were used as a negative control for the assay. Every sample was tested in triplicate.

SARS-CoV-2 [4] = assay type: cell-based; conditions: cells pre-treated, surfactin 35, WLIP 20, fengycin 50, caspofungin 100 µg/mL
SARS-CoV-2 [5] = experiment: Binding inhibition: pre-infection treatment of cells; assay type: cell-based; conditions: cells pre-treated and cleared from unbound lipopeptide before infection; fengycin 50 µg/mL
Procedure: For the binding inhibition assays, four different conditions (Fig. 1) were tested to assess the potential of lipopeptides to inhibit the attachment of SARS-CoV-2 to cells in different settings. […] In these assays, SARS-CoV-2 was used at an MOI of 10, and every sample was tested in triplicate. Some steps were performed at 4°C to rigidify the cellular and viral membranes, allowing the virus to bind to the cells but not fuse with the […], as detailed below.
The cell supernatant was discarded, and the lipopeptides were added to the cells, which were subsequently incubated for 1 h at 37°C with gentle agitation. […] The viral stock was then added to the cells, which were subsequently incubated on ice for 1 h with gentle agitation.

In the case of Fengycin, the “Reduction of viral RNA concentration” value (SARS-CoV-2 [1]; 24 h pi, surfactin 35, WLIP 20, fengycin 50, caspofungin 100 µg/mL) is reported as “did not reduce the RNA concentration”, the “Reduction of viral RNA concentration” value (SARS-CoV-2 [1]; 72 h pi, surfactin 35, WLIP 20, fengycin 50, caspofungin 100 µg/mL) is reported as 0.6 log and the “EC50 (half maximal effective concentration)” value (SARS-CoV-2 [1]; SARS-CoV-2 MOI 0.01, Vero E6, viral RNA at 72 h pi by RT-qPCR, mean (standard deviation)) is reported as 71.7 (20.7) µg/mL. For the same substance, the “Reduction in viral RNA” value (SARS-CoV-2 [1]; surfactin 35, WLIP 20, fengycin 50, caspofungin 100 µg/mL, 72 h (Fig. 5)) was 3.2 log, the Fusion percentage (SARS-CoV-2 [2]) was 17.2% and the “Binding percentage of SARS-CoV-2 to cells” value (from here on “Binding percentage”) (SARS-CoV-2 [3]) was 21.7%. The Cell viability (Vero E6 cells; 100 µg/mL, Vero E6) was 64.1%, the “IC50 (half maximal inhibitory concentration, cytotoxicity)” value (Vero E6 cells; Vero E6 cells, XTT, mean (standard deviation), fengycin and caspofungin determined at higher concentrations in a subsequent experiment) was 295.3 (28.3)^b µg/mL and the Cell viability (Vero E6 cells; surfactin 35, WLIP 20, fengycin 50, caspofungin 100 µg/mL, Vero E6 (Fig. 5)) was 89.9%. The “Binding percentage” value (SARS-CoV-2 [4]) was 11.3% and the “Binding percentage” value (SARS-CoV-2 [5]) was 54%.
